According to patent US11058742B2, “Food composition for suppressing hepatic lipogenesis” (FUJI OIL HOLDINGS INC., priority 2019, dated 2021):

What was measured:
Fasn gene mRNA [1] = experiment: Tertiary screening: Fasn gene expression level with changed amount of peptide; type: cell-based, mouse (C57BL/6J); settings: for effect of suppressing hepatic lipogenesis: conclusion from the results of primary to tertiary screening; for Fasn gene expression level (significantly reduced compared to the blank): final concentration of the sample 10, 30, 100 μg/ml, otherwise as secondary screening
Experimental: (§1) In the secondary screening, evaluation is performed by measuring the expression level of Fasn gene mRNA using isolated hepatocyte derived from wild-type mouse (C57BL/6J mouse). More specifically, isolated hepatocyte derived from wild-type mouse (C57BL/6J mouse) is plated in 12-well plate in Dulbecco's modified Eagle's medium (DMEM) containing 1% penicillin and streptomycin, and 10% fetal calf serum (FCS) for 8 hours, and then subjected to 16 hours starvation by replacing the medium with Dulbecco's modified Eagle's medium (DMEM) containing 1% penicillin and streptomycin. The medium is recovered and cultured for 24 hours in a medium containing insulin, liver X receptor (LXR) agonist, amino acid mixture, and each peptide (100 μg/ml in the medium at final concentration). In addition, as a group without adding peptide, a sample to which 10% dimethyl sulfoxide (DMSO) is added instead of the peptide is similarly cultured for 24 hours. After removing the medium from each well, mRNA is extracted. The extraction of mRNA is performed with the SV Total RNA Isolation System (Promega, Z3105), reverse transcription from the RNA is performed with the PrimeScript RT reagent kit (Takara, RR0037A), and quantitative PCR is performed with the CFX384 Real-Time System and C1000 Thermal Cycler using the SYBR Select Master Mix kit (Life technologies, 4472908). The methods comply with the instructions for the kit and equipment.
The amount of peptide to be added is changed (as used herein, the final concentration of the sample is 10, 30, 100 μg/ml, unless otherwise specified), and the expression level of the Fasn gene is evaluated in the same manner as in the secondary screening.

Fasn gene mRNA [2] = experiment: Secondary screening: expression level of Fasn gene mRNA in isolated hepatocyte derived from wild-type mouse; type: cell-based, mouse (C57BL/6J); settings: each peptide 100 μg/ml final concentration, 24 hours, with insulin, LXR agonist, amino acid mixture; vs control (10% DMSO)
Experimental: as §1

Substance	effect of suppressing hepatic lipogenesis (Fasn gene mRNA [1])	Fasn gene expression level (significantly reduced compared to the blank) (Fasn gene mRNA [1])	Fasn gene expression level (significantly reduced compared to the blank) (Fasn gene mRNA [2])
His-Ala-Gln	an effect of suppressing hepatic lipogenesis was confirmed	significantly suppressed the expression of the Fasn gene	
Leu-Arg-Asp	an effect of suppressing hepatic lipogenesis was confirmed	significantly suppressed the expression of the Fasn gene	
Lys-Leu-Gly	an effect of suppressing hepatic lipogenesis was confirmed	significantly suppressed the expression of the Fasn gene	
His-Trp	an effect of suppressing hepatic lipogenesis was confirmed	significantly suppressed the expression of the Fasn gene	significantly suppressed the expression of the Fasn gene
Ser-Gly-Glu	an effect of suppressing hepatic lipogenesis was confirmed	significantly suppressed the expression of the Fasn gene	
Ile-His-Arg	an effect of suppressing hepatic lipogenesis was confirmed	significantly suppressed the expression of the Fasn gene	
Trp-Glu	an effect of suppressing hepatic lipogenesis was confirmed	significantly suppressed the expression of the Fasn gene	significantly suppressed the expression of the Fasn gene
Ile-Asp-Arg	an effect of suppressing hepatic lipogenesis was confirmed	significantly suppressed the expression of the Fasn gene	
Tyr-Ser	an effect of suppressing hepatic lipogenesis was confirmed	significantly suppressed the expression of the Fasn gene	significantly suppressed the expression of the Fasn gene
Ser-Ser-Val	an effect of suppressing hepatic lipogenesis was confirmed	significantly suppressed the expression of the Fasn gene	
Asn-Gly-Arg	an effect of suppressing hepatic lipogenesis was confirmed	significantly suppressed the expression of the Fasn gene	
His-Thr	an effect of suppressing hepatic lipogenesis was confirmed	significantly suppressed the expression of the Fasn gene	significantly suppressed the expression of the Fasn gene
Asn-Arg-Val	an effect of suppressing hepatic lipogenesis was confirmed	significantly suppressed the expression of the Fasn gene	
Tyr-Lys	an effect of suppressing hepatic lipogenesis was confirmed	significantly suppressed the expression of the Fasn gene	significantly suppressed the expression of the Fasn gene
Val-Phe-Val	an effect of suppressing hepatic lipogenesis was confirmed	significantly suppressed the expression of the Fasn gene	
Pro-Phe-Tyr	an effect of suppressing hepatic lipogenesis was confirmed	significantly suppressed the expression of the Fasn gene	
Trp-Lys	an effect of suppressing hepatic lipogenesis was confirmed	significantly suppressed the expression of the Fasn gene	significantly suppressed the expression of the Fasn gene
Val-Met	an effect of suppressing hepatic lipogenesis was confirmed	significantly suppressed the expression of the Fasn gene	significantly suppressed the expression of the Fasn gene
His-Ser	an effect of suppressing hepatic lipogenesis was confirmed	significantly suppressed the expression of the Fasn gene	significantly suppressed the expression of the Fasn gene

Substance	effect of suppressing hepatic lipogenesis (Fasn gene mRNA [1])	Fasn gene expression level (significantly reduced compared to the blank) (Fasn gene mRNA [1])	Fasn gene expression level (significantly reduced compared to the blank) (Fasn gene mRNA [2])
Arg-Trp-Phe	an effect of suppressing hepatic lipogenesis was confirmed	significantly suppressed the expression of the Fasn gene	
Ala-His			significantly suppressed the expression of the Fasn gene
Arg-Ala-Val	an effect of suppressing hepatic lipogenesis was confirmed	significantly suppressed the expression of the Fasn gene	
Val-Leu-Gln	an effect of suppressing hepatic lipogenesis was confirmed	significantly suppressed the expression of the Fasn gene	
Phe-Ile-Arg	an effect of suppressing hepatic lipogenesis was confirmed	significantly suppressed the expression of the Fasn gene	
Lys-Pro-Ile	an effect of suppressing hepatic lipogenesis was confirmed	significantly suppressed the expression of the Fasn gene	
Ala-Tyr			significantly suppressed the expression of the Fasn gene
Val-Ile-Leu	an effect of suppressing hepatic lipogenesis was confirmed	significantly suppressed the expression of the Fasn gene	
Ile-Ile-Pro	an effect of suppressing hepatic lipogenesis was confirmed	significantly suppressed the expression of the Fasn gene	
Gln-Glu-Glu	an effect of suppressing hepatic lipogenesis was confirmed	significantly suppressed the expression of the Fasn gene	
Asp-Val-Phe	an effect of suppressing hepatic lipogenesis was confirmed	significantly suppressed the expression of the Fasn gene	
His-Asn	an effect of suppressing hepatic lipogenesis was confirmed	significantly suppressed the expression of the Fasn gene	significantly suppressed the expression of the Fasn gene
Ala-Gly	an effect of suppressing hepatic lipogenesis was confirmed	significantly suppressed the expression of the Fasn gene	significantly suppressed the expression of the Fasn gene
Gly-Ser-Leu	an effect of suppressing hepatic lipogenesis was confirmed	significantly suppressed the expression of the Fasn gene	
Leu-Val-Ile	an effect of suppressing hepatic lipogenesis was confirmed	significantly suppressed the expression of the Fasn gene	
Ile-Val-Ile	an effect of suppressing hepatic lipogenesis was confirmed	significantly suppressed the expression of the Fasn gene	
Asp-Phe-Phe	an effect of suppressing hepatic lipogenesis was confirmed	significantly suppressed the expression of the Fasn gene	
Tyr-Tyr	an effect of suppressing hepatic lipogenesis was confirmed	significantly suppressed the expression of the Fasn gene	significantly suppressed the expression of the Fasn gene
